One test addresses SYK (Homo sapiens, UniProt P43405). The conditions noted are these: supplement CSV.
In another test the target is CAMK1G (Homo sapiens, UniProt Q96NX5). As to conditions: supplement CSV.
In the next test the target is PAK4 (Homo sapiens, UniProt O96013). The conditions noted are these: supplement CSV.
Another test has as its target T1, CaMK4 (Homo sapiens, UniProt Q16566).
T1 sequence (Q16566 1-473): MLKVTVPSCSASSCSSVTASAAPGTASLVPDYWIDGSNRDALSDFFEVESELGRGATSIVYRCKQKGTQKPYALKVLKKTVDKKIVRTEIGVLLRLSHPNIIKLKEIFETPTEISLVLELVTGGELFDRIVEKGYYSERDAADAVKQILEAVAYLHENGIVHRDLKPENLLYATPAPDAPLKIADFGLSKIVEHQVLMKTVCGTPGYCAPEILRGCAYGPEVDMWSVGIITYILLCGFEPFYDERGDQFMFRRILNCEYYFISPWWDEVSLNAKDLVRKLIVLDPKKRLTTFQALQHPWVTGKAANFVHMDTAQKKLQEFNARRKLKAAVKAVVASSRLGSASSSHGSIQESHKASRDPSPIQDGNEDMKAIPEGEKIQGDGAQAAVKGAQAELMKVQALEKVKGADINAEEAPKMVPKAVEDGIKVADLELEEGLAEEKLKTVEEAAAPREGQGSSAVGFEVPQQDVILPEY
As to conditions: supplement CSV.

For the next test, the target named is GSK3β (Homo sapiens, UniProt P49841). As to conditions: supplement CSV.
The target in the next test is PIM1 (Homo sapiens, UniProt P11309). The conditions noted are these: supplement CSV.
The target of the next test is T2, DCLK1 (Homo sapiens, UniProt O15075).
T2 sequence (O15075 1-740): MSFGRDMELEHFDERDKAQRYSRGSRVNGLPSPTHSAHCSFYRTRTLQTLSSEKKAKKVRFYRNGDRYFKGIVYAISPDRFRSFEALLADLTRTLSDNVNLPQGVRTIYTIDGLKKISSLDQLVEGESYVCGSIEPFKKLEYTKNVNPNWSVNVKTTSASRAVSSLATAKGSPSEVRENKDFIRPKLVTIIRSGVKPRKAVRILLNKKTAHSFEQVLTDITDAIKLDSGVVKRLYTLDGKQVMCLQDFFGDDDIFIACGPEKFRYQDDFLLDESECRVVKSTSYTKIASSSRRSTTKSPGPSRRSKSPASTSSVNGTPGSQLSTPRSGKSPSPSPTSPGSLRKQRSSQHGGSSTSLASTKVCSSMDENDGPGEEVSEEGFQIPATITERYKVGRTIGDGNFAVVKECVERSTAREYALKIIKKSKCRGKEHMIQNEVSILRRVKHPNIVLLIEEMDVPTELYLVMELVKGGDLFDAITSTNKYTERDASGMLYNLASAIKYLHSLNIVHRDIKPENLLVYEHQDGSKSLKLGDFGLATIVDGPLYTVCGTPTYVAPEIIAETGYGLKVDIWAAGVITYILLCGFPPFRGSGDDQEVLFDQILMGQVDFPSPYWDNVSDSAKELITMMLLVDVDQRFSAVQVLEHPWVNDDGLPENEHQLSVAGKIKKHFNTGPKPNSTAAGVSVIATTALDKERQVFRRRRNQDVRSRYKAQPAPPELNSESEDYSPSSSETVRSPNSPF
The conditions noted are these: supplement CSV.

The next test addresses CK2a (Homo sapiens, UniProt P68400). The conditions noted are these: supplement CSV.
The target of the next test is CAMK2A (Homo sapiens, UniProt Q9UQM7). As to conditions: supplement CSV.
The next test addresses DAPK1 (Homo sapiens, UniProt P53355). As to conditions: supplement CSV.
A further test has as its target ABL (Homo sapiens, UniProt P00519). The conditions noted are these: supplement CSV.
Another test addresses DAPK3 (Homo sapiens, UniProt O43293). The conditions noted are these: supplement CSV.
For another test, the target named is T3, PKNB(M.tuberculosis) (Mycobacterium tuberculosis, UniProt P9WI81).
T3 construct: purchased DiscoverX (Eurofins) KINOMEscan scanMAX; first lines in-house DSF / ADP-Glo
Briefly: KINOMEscan. It is filed as binding.

Test [1] relates to kinase panel (468 Assays Tested). Briefly: Pan-kinome selectivity, competitive binding assay (KINOMEscan). As to conditions: for S-Score(35): 1 μM.

Where a name gives a salt, the structure may show the parent alone.

Chain of GSK3β (P49841 whole entry, species assumed): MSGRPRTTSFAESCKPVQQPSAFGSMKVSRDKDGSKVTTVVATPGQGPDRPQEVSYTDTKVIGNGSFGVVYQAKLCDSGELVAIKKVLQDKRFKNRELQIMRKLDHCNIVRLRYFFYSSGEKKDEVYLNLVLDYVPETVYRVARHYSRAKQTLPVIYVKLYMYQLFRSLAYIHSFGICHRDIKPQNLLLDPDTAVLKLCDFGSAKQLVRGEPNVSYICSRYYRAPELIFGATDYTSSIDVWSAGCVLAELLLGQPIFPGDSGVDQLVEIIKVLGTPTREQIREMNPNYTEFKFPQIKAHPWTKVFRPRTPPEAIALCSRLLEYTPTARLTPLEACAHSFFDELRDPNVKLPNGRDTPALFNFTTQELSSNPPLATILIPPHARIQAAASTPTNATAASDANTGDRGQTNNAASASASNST
Chain of DAPK3 (O43293 whole entry): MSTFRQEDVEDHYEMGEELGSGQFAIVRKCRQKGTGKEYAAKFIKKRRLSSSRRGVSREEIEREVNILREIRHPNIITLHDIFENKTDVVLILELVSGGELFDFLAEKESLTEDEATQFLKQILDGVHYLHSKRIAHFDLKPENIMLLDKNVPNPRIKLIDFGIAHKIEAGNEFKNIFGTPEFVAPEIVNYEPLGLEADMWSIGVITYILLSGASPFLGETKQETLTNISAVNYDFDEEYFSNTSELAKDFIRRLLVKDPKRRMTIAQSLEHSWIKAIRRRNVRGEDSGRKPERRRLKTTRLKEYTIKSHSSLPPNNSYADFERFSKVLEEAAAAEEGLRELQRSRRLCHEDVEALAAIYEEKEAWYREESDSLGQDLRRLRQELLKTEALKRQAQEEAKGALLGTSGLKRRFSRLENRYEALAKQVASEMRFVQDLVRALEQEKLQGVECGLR
Chain of ABL (P00519 whole entry, species assumed): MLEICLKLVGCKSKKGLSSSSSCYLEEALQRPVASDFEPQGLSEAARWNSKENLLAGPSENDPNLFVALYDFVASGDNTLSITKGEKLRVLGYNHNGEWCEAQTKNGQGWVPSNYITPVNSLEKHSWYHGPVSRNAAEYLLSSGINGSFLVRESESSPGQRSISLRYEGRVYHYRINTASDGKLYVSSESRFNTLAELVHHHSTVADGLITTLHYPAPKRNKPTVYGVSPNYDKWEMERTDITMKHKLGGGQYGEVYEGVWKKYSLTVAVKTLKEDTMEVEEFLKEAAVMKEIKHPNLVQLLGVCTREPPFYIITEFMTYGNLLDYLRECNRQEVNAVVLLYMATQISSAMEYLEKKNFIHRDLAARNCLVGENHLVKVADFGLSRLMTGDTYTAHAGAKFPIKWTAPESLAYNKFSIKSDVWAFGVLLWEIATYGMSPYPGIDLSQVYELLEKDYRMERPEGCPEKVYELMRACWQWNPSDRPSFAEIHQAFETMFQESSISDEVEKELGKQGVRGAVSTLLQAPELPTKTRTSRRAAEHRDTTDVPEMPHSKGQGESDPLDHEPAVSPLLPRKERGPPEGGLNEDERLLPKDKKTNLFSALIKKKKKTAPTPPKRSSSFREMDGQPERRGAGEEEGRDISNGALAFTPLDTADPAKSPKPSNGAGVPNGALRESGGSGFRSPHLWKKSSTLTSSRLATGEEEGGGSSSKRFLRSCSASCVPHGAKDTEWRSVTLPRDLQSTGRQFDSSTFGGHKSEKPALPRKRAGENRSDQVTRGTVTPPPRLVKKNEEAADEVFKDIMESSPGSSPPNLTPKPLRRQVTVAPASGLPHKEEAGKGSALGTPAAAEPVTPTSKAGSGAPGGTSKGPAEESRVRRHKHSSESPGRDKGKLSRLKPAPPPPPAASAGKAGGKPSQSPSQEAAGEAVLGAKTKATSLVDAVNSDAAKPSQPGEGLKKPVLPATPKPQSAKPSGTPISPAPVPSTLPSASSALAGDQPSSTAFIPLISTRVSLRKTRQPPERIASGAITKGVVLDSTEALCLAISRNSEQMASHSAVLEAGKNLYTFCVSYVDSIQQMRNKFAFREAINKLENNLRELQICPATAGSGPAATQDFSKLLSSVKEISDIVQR
Chain of PAK4 (O96013 whole entry): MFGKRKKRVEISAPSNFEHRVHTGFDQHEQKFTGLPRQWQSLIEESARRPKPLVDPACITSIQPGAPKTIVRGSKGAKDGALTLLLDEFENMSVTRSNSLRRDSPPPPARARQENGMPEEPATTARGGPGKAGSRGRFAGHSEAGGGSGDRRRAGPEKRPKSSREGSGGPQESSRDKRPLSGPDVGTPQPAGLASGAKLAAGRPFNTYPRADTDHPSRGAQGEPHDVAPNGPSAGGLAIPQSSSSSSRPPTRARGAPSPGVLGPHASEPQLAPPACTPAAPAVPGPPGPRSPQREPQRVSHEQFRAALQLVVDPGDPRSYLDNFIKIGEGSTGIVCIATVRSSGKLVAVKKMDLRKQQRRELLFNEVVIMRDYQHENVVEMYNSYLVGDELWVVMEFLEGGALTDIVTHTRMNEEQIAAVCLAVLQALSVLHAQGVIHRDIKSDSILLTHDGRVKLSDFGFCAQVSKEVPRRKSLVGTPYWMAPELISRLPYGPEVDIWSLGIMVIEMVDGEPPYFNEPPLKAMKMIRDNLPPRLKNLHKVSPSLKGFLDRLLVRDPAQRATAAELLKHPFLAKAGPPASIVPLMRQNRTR
Chain of CAMK2A (Q9UQM7 whole entry): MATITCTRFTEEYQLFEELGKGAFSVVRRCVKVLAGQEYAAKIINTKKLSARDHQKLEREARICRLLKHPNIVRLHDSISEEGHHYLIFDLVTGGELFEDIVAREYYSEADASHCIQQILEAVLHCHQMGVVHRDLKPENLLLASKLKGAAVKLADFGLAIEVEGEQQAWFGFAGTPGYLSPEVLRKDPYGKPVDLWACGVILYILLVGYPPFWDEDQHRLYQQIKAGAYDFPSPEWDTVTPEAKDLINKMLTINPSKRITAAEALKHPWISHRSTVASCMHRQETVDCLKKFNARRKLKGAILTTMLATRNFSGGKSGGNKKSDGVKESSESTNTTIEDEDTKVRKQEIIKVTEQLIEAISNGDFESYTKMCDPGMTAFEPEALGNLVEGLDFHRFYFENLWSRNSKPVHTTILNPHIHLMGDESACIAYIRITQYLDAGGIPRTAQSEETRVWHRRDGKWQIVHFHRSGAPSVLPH
Chain of CAMK1G (Q96NX5 whole entry): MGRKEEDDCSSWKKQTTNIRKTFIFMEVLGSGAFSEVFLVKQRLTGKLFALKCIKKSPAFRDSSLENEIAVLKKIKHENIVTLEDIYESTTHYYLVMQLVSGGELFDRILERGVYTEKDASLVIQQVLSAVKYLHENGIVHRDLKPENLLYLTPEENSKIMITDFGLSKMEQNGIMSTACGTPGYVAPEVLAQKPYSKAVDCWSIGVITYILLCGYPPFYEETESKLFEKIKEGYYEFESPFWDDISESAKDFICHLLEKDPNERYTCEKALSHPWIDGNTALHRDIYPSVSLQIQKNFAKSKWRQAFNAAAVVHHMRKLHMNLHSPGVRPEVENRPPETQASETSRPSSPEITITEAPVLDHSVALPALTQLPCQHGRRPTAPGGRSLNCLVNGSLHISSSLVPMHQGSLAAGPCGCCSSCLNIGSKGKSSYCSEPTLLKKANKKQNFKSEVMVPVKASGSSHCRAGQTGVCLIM
Chain of PIM1 (P11309 whole entry): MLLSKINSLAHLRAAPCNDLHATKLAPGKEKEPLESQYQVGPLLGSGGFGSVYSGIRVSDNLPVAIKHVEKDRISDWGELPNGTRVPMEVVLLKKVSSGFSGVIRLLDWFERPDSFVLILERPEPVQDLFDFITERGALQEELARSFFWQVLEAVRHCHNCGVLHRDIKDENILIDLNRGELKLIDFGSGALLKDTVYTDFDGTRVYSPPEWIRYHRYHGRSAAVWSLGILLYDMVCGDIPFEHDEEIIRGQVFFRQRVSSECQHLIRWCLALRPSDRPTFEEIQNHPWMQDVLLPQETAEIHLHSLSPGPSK
T3 sequence (P9WI81 whole entry): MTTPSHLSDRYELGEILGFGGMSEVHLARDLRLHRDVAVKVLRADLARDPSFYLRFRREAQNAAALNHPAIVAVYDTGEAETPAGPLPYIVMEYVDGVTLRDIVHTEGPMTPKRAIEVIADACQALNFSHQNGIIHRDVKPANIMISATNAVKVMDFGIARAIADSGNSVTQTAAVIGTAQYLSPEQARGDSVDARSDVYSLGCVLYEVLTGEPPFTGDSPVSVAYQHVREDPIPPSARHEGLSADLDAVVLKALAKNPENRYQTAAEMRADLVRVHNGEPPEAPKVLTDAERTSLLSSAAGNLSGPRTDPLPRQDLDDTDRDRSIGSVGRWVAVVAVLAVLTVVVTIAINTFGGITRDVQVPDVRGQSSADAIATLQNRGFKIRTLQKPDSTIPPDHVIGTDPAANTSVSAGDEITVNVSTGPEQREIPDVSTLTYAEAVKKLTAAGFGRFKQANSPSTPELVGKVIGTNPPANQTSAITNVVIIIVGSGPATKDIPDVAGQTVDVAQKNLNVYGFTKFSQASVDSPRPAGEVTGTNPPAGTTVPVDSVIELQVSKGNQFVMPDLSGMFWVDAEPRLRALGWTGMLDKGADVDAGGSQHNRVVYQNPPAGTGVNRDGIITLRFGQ
Chain of CK2a (P68400 whole entry): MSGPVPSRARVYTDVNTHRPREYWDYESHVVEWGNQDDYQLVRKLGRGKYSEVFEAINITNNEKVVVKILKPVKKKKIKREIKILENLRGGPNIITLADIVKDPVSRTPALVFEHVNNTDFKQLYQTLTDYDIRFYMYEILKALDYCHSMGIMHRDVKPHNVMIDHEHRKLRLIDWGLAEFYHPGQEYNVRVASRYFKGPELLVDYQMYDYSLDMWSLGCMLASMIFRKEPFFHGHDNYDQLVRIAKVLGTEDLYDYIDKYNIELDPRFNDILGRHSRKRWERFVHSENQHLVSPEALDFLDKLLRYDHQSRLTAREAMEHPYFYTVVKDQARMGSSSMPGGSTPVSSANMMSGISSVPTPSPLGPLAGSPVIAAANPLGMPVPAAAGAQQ

For `NCCNc1ncc(C(N)=O)c(Nc2cccc(C(F)(F)F)c2)n1` [Compound 1, 2-((2-Aminoethyl)amino)-4-((3-(trifluoromethyl)phenyl)amino)pyrimidine-5-carboxamide hydrochloride, reference compound], on SYK, the “SYK Tm” value is on record as 7.51 0C. In addition, the “CAMK1G Tm” value on CAMK1G was 4.11 0C. For the same molecule, the “PAK4 Tm” value on PAK4 is on record as 4.62 0C. Also, the “CAMK4 Tm” value at CaMK4 is listed as 1.34 0C. Also, at GSK3β, the “GSK3B Tm” value is listed as 3.4 0C. The “PIM1 Tm” value on PIM1 was 1 0C. Also, the “DCAMKL1 Tm” value at DCLK1 is on record as 0.11 0C. At CK2a, the “CK2alpha Tm” value is reported as 0.87 0C. In addition, on CAMK2A, the “CAMK2A Tm” value is listed as 0.21 0C. On DAPK1, the “DAPK1 Tm” value is recorded as 2.33 0C. For the same molecule, the “ABL1 Tm” value on ABL is 1.33 0C. Besides, at DAPK3, the “DAPK3 Tm” value is 4.05 0C.
Take `CN(CCN)c1ncc(C(N)=O)c(Nc2cccc(C(F)(F)F)c2)n1` [Compound 3, 2-((2-Aminoethyl)(methyl)amino)-4-((3-(trifluoromethyl)phenyl)amino)pyrimidine-5-carboxamide Hydrochloride]: the “CAMK1G Tm” value on CAMK1G is on record as 4.91 0C. Moreover, the “PAK4 Tm” value on PAK4 was 2.1 0C. At PIM1, the “PIM1 Tm” value is recorded as 4.42 0C. Also, the “CK2alpha Tm” value on CK2a was 1.26 0C. The “CAMK2A Tm” value on CAMK2A is 0.49 0C. Moreover, at DAPK1, the “DAPK1 Tm” value is recorded as 3.2 0C. Further, the “ABL1 Tm” value at ABL is recorded as 1.75 0C.
Turning to `NC(=O)c1cnc(N2CCC[C@H](N)C2)nc1Nc1cccc(C(F)(F)F)c1` [Compound 8, (S)-2-(3-Aminopiperidin-1-yl)-4-((3-(trifluoromethyl)phenyl)amino)pyrimidine-5-carboxamide Hydrochloride], the remaining binding at 1 µM at PKNB(M.tuberculosis) stood at 84%. Further, on CAMK1G, the “CAMK1G Tm” value is recorded as 9.55 0C. Besides, on PAK4, the “PAK4 Tm” value is listed as 4.73 0C. Further, the “S-Score(35)” value in test [1] is reported as 0.12. Moreover, in [1] (competitive binding assay at 1 μM), the “wild-type kinases inhibited by >90%” value is on record as 11. The “CAMK2A Tm” value at CAMK2A is reported as 1.08 0C.
At PKNB(M.tuberculosis), `CC(C)(C)c1cc(Nc2nc(N3CCC[C@H](N)C3)ncc2C(N)=O)cc(C(C)(C)C)c1` [Compound 14, (S)-2-(3-Aminopiperidin-1-yl)-4-((3,5-di-tert-butylphenyl)amino)pyrimidine-5-carboxamide] yielded a remaining binding at 1 µM of 97%. Further, at CAMK1G, the “CAMK1G Tm” value is 10.22 0C. Also, the “PAK4 Tm” value at PAK4 is -0.72 0C. The “CAMK4 Tm” value at CaMK4 is recorded as 6.39 0C. Also, the “S-Score(35)” value in test [1] worked out at 0.01. Further, the “GSK3B Tm” value on GSK3β is recorded as -0.63 0C. The “DCAMKL1 Tm” value at DCLK1 is given as 1.34 0C. Moreover, the “CAMK2A Tm” value at CAMK2A was 0.69 0C. At ABL, the “ABL1 Tm” value was -0.28 0C. Also, the “DAPK3 Tm” value at DAPK3 was 4.82 0C.
Consider `CC(C)c1cc(Nc2nc(N3CCC[C@H](N)C3)ncc2C(N)=O)cc(C(C)C)c1` [Compound 15, (S)-2-(3-Aminopiperidin-1-yl)-4-((3,5-diisopropylphenyl)amino)pyrimidine-5-carboxamide], for which the “CAMK1G Tm” value at CAMK1G is given as 10.33 0C. Besides, the “PAK4 Tm” value on PAK4 is given as 4.76 0C. Besides, the “CAMK4 Tm” value on CaMK4 is on record as 6.46 0C. For the same molecule, the “GSK3B Tm” value at GSK3β is recorded as -0.2 0C. For the same molecule, on DCLK1, the “DCAMKL1 Tm” value was 1.96 0C. Besides, the “CAMK2A Tm” value on CAMK2A was 2.19 0C. In addition, the “DAPK3 Tm” value at DAPK3 was 8.08 0C.
